This assay has as its system mast cells. Put plainly: Release of interleukin-4 (IL-4) from mast cells stimulated with Compound 48/80. Format: cell-based. Conditions: sample 4 h, then Compound 48/80 20 mg/L 2 h, 8 duplicate wells, model group 67.6 ± 9.9, control group 34.4 ± 7.9. The procedure:
According to the following test method, the effects of the […] samples A-E as prepared above on the release of IL-4 from mast cells were tested.
Experimental principle: The specific antigen is crosslinked with the IgE antibody bound to the cell membrane, resulting in cell activation and rapid secretion of inflammatory mediators related to granulation (histamine, IL-4, IL-13, etc.). […] In this study, Compound 48/80 was used to stimulate mast cells to degranulate and release the inflammatory mediator IL-4 to investigate the protective efficacy of the test samples on the allergic reaction of mast cells.
Experimental materials: Mast cells were provided by the Animal Center of Zhejiang Academy of Medical Sciences. […]
Experimental method: Each of samples was prepared using RPMI1640 medium, and each of samples was provided with 8 duplicate wells. Mast cells were inoculated into a 96-well culture plate at a density of 5×10^6/mL, 90 μL per well, and added with 10 μL/well of a corresponding sample; cultured in a 5% CO2 incubator at 37° C., and taken out after 4 h; in addition to the control group, the other groups were added with a stimulus 48/80 (final concentration 20 mg/L), and continued to incubate in an incubator at 37° C. for 2 h, and then centrifuged at 1500 rpm for 5 mins to get the supernatant, and the content of IL-4 in the supernatant was detected by Elisa (interleukin-4) kit.

Experimental findings from patent US20220370534A1, “EXTERNAL COMPOSITION FOR SKIN HAVING ITCHING RELIEVING EFFECT” (YANGSHENGTANG (ANJI) COSMETICS CO., LTD., priority 2019, published 2022) are described below.

Take `O=C(O)c1cc(=O)c2c(OCC(O)COc3cccc4oc(C(=O)O)cc(=O)c34)cccc2o1` [Positive drug, sodium cromoglycate]: the “Release % (IL-4 release from cell models)” value turned out to be 44.2 ± 12.3%.
